Test results as given in patent US9040527B2, “Pyrimidinediamine kinase inhibitors” (Rigel Pharmaceuticals, Inc., priority 2008, dated 2015).

Columns and labels:
PLK1 [1] = molecular target: T1, PLK1 (Homo sapiens, UniProt P53350); assay: In vitro PLK1 ELISA assay (biochemical); parameters: purchased Cell Signalling 7728
Description: (§1) Inhibition of PLK1 was measured by quantifying phosphorylation of PLK1 substrates using chemiluminescent and fluorogenic probes. The protocols for these assays are provided below.
In Vitro PLK1 ELISA Assay
1. Preparation of Assay Plates.
Costar 96-well black or white solid flat high binding plates (Fisher Scientific, Catalog No. 07-200-591) were coated with Neutravidin (Pierce, Catalog No. 31000) using the following protocol. A 0.01 mg/mL solution of Neutravidin in 1× Phosphate Buffered Saline (“PBS”, Cellgro/Mediatech, Catalog No. 21-040-CV) was added to each well (100 μL/well) and was incubated for 18-24 hours at 4° C. The plates were then washed with 1× Phosphate Buffer Saline—Tween (“PBST”, Calbiochem, Catalog No. 524653) buffer using a plate washer. The plates were treated with bovine serum albumin (“BSA”, Sigma, Catalog No. A7906) to block non-specific binding sites, by adding a 2% BSA solution in 1×PBST buffer to each well (100 μL/well) and incubating the plates for 1 hour at room temperature. The plates were then washed with 1×PBST buffer using a plate washer.
2. PLK1-Catalyzed Phosphorylation Reaction
An aqueous buffer solution A having the following composition was prepared:
20 mM HEPES (Cellgro/Mediatech, Catalog No. 25-060Ci), pH 7.2;
5 mM MgCl2 (Sigma, Catalog No. M2393);
2 mM MnCl2.4H2O (EM Biosciences, Catalog No. MX0185-2);
1 mM Dithiothreitol (“DTT”, Fluka, Catalog No. B4184).
Next, the substrate solution B was prepared by adding 2.6 μL of 10 mM ATP (Sigma, Catalog No. A7699) and 6.4 μL of the 1 mM PLK1 substrate, CHK2-derived peptide Biotin-SSLETVSTQELYSIP (custom synthesized at Anaspec) SEQ ID: No. 1, to 4691 μL of the buffer solution A. The concentration of the ATP in solution B is 5.44 μM (1.36×); the concentration of the PLK1 substrate in solution B is 1.36 μM (1.36×).
Compound solutions C of varying concentrations for each compound were prepared by dissolving each compound in dimethylsulfoxide (DMSO, Sigma, Catalog No. D2650) to varying concentrations, followed by adding 2 μL of each solution to 38 μL of the buffer solution A, thereby forming 10× compound solutions in 5% DMSO.
A PLK1 solution D was prepared by adding 8.4 μL of 100 μg/mL PLK1 (Cell Signalling, Catalog No. 7728) to 1392 μL of the buffer solution A, thereby forming 0.6 μg/mL (6×) PLK1 solution.
The aqueous 1.36× substrate solution B was added to each well (44 μL/well) resulting in binding of the substrate to the plate via biotin/neutravidin interaction. Then 10× compound solutions C for each tested compound at each tested concentration were added to each well (6 μL/well). Next, 6×PLK1 solution D was added to each well (10 μL/well).
The final concentrations of tested compounds in each well were 10 μM, 3.3 μM, 1.1 μM, 0.36 μM, 0.12 μM, 0.04 μM, 0.014 μM, and 0.005 μM.
The obtained reaction mixtures were incubated in the wells for 45 minutes at room temperature, allowing PLK1-catalyzed phosphorylation of the substrate to proceed. The plates were then washed with 1×PBST solution using a plate washer, such that the bound phosphorylated or unphosphorylated substrate remains attached to the wells upon washing.
The washed plates were developed by treating the plates with a primary antibody that is specific for the phosphorylated substrate, followed by treatment with a secondary antibody that is specific for the primary antibody, and that is capable of catalyzing a reaction that results in a chemiluminescent readout. The chemiluminescent readout was used to quantify the substrate phosphorylation, and, consequently, to determine IC50 values for PLK1 inhibition, and was measured using a luminometer (Perkin Elmer/Wallac plate reader). The plate development protocol is described below.
A mixed antibody solution E was prepared by adding 1 μL of the primary antibody, rabbit p-CHK2(T68) (Rockland, Catalog No. 401280), and 1 μL of the secondary antibody, HRP-goat anti-rabbit IgG (Jackson Immunoresearch Catalog No. 111-035-003) to 10000 μL of 0.1% BSA in 1×PBST buffer. […]

PLK1 [2] = molecular target: T1, PLK1; assay: Cellular PLK1 assay in K562 cells overexpressing CDC25C; assay type: cell-based; parameters: endogenous in cells; host or cells: K562 (human chronic myelogenous leukemia) overexpressing CDC25C, nocodazole-arrested; settings: nocodazole arrested, cdc25c p-Ser198 readout
Description: as §1
1. Culturing of K562 Cells
Human chronic myelogenous leukemia K562 cells (American Tissue Culture Collection) overexpressing CDC25C, were grown in Growth Medium having the following composition: Iscove Dulbecco's Modified Eagle's Medium (“Iscove DMEM”, Mediatech/Cellgro, Cat. #10-013-CV), 10% Fetal Bovine Serum (“FBS”, SAFC Biosciences, Cat. #12106-500M), and 1% penicillin/streptomycin (“pen-strep”, Mediatech/Cellgro, Cat. #30-002-CI). The cells were plated in 96 well round bottom tissue culture plates (Fisher, Costar* Cell Culture plates, Cat. #07-200-95) at 100,000 cells per 50 μL of Growth Medium per well. Nocodazole (Sigma, Cat. # M1404) was added to the growth media to arrest the cells in the G2 or M phase, at 333 nM concentration. The cells were incubated with nocodazole for 18 hours at 37° C. prior to addition of tested compounds.
2. Treatment of Cells with the Tested Compounds
Solutions of tested compounds in DMSO at different concentrations were prepared using serial dilutions. Each compound was tested at 8 concentration points, 10 μM, 3.3 μM, 1.11 μM, 0.37 μM, 0.12 μM, 0.04 μM, 0.014 μM, 0.005 μM, duplicate replicates.
Two controls were performed: “DMSO alone” control in which nocodazole and DMSO were present but no compounds were added, and “nocodazole alone” control, in which only nocodazole was present, but neither DMSO nor compounds were added.
The solutions of compounds were prepared by diluting 10 mM compound 1:1 in DMSO (5 μL 10 mM compound and 5 μL DMSO), followed by 1:3 serial dilutions of compound in DMSO performed by diluting 3 μL of higher concentration compound solution serially into 6 μL DMSO to give 3-fold dilutions. Next, 3 μL of each compound solution at each concentration was transferred to 750 μL of Growth Medium. In “DMSO alone” control 3 μL of DMSO alone was added to 750 μL of Growth Medium.
After the diluted compounds were mixed well in the Growth Medium, 50 μL of each compound solution in DMSO/Growth Medium was transferred to each well of the 96-plate containing cells in 50 μL of Growth Medium/Nocodazole.
The cells and compounds were incubated for 120 minutes at 37° C., in an atmosphere containing 5% CO2.
3. Fixation and Permeabilization of the Cells
After the cells were incubated with compounds, the cells were spun down at 1,000 rpm for 5 minutes at 4° C. and supernatants were removed by flicking the plates. Cells were then washed with 200 μl of ice cold PBS, spun down again and supernatants removed. Cells were then fixed and permeabilized by addition of 100 μL/well of Fixation and Permeabilization Solution (1× buffer provided in BD Biosciences Cytofix/Cytoperm™ Fixation/Permeabilization kit, Cat. #554714) and incubation for 20 minutes at room temperature. The fixative was then removed by centrifugation (5 minutes at 2,000 rpm), and plates were flicked to remove the fixative and washed twice, each time with 200 μL/well BD Perm/Wash buffer (10× concentrate provided in BD Biosciences Cytofix/Cytoperm™ Fixation/Permeabilization kit, Cat. #554714, 1× buffer prepared by dilution in distilled H2O).
Cells were spun down at 1,000 rpm for 5 minutes at 4° C. Supernatants were removed by flicking the plates. A solution of a primary antibody specific for cdc25cp-Ser198 was prepared by diluting Rabbit cdc25c (Ser198) antibody (Cell Signaling, #9529L) 1:50 in a Fluorescence Activated Cell Sorting (“FACS”) Buffer (2% FBS in PBS). The cell pellets were resuspended in 50 μL of the primary antibody solution. 50 μL of FACS buffer was added to unstained controls. Staining was allowed to proceed overnight at room temperature.
The plates were then washed by addition of 200 μL of FACS Buffer to each well, were centrifuged and the supernatant was removed. […]

[3] = ELISA, CHK2-derived peptide substrate, read-out: PLK1 IC50 (μM) biochemical assay
[4] = read-out: IC50 in biochemical in vitro PLK1 ELISA assay (less than 10 μM)

T1 sequence (P53350 whole entry): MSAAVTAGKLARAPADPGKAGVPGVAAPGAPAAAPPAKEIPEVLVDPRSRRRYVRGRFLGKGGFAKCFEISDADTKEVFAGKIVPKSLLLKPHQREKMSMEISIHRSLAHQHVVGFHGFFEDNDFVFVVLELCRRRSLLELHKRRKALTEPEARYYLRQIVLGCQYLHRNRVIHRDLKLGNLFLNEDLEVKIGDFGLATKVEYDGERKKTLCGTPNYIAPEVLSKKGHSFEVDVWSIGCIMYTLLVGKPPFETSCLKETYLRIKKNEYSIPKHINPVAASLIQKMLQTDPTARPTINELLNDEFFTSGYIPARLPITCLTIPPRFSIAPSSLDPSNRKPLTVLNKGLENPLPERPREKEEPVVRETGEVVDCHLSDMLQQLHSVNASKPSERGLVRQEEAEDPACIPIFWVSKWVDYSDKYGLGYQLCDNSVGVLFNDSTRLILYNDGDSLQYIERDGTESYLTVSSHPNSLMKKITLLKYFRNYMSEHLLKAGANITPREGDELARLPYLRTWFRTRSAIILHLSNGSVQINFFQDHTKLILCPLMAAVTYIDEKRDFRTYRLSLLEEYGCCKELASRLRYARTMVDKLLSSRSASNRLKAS

IC50 (PLK1 [1]; [3]) [µM]	IC50 (PLK1 [1]; read-out: IC50 in biochemical ELISA assay (less than 0.01 μM)) [µM]	IC50 (PLK1 [1]; [4]) [µM]	IC50 (PLK1 [2]) [µM]	Compound
< 0.5	< 0.01	< 10	0.5 to 5	CN1CCN(c2cccc(Nc3ncc(F)c(Nc4ccc5c(c4)NC(=O)CO5)n3)c2)CC1 [compound 17, 6-(5-fluoro-2-(3-(4-methylpiperazin-1-yl)phenylamino)pyrimidin-4-ylamino)-2H-benzo[b][1,4]oxazin-3(4H)-one]
< 0.5	–	< 10	0.5 to 5	O=C1COc2ccc(Nc3nc(Nc4cccc(N5CCNCC5)c4)ncc3F)cc2N1 [compound 18, 6-(5-fluoro-2-(3-(piperazin-1-yl)phenylamino)pyrimidin-4-ylamino)-2H-benzo[b][1,4]oxazin-3(4H)-one]
< 0.5	–	< 10	0.5 to 5	CN1CCN(c2cccc(Nc3ncc(F)c(Nc4ccc5c(c4)NCCO5)n3)c2)CC1 [compound 20, N4-(3,4-dihydro-2H-benzo[b][1,4]oxazin-6-yl)-5-fluoro-N2-(3-(4-methylpiperazin-1-yl)phenyl)pyrimidine-2,4-diamine]
–	–	–	≥ 10	Cc1cnc(Nc2ccc(N3CCN(C)CC3)cc2)nc1Nc1ccc2c(n1)NC(=O)C(C)(C)O2 [compound 88, 2,2-dimethyl-6-(5-methyl-2-(4-(4-methylpiperazin-1-yl)phenylamino)pyrimidin-4-ylamino)-2H-pyrido[3,2-b][1,4]oxazin-3(4H)-one]
–	–	–	≥ 10	CCN1CCN(c2ccc(Nc3ncc(C)c(Nc4ccc5c(n4)N(C)C(=O)CO5)n3)cc2)CC1 [compound 91, 6-(2-(4-(4-ethylpiperazin-1-yl)phenylamino)-5-methylpyrimidin-4-ylamino)-4-methyl-2H-pyrido[3,2-b][1,4]oxazin-3(4H)-one]
–	–	–	≥ 10	CCN1CCN(c2ccc(Nc3ncc(C)c(Nc4ccc5c(n4)NC(=O)C(C)(C)O5)n3)cc2)CC1 [compound 92, 6-(2-(4-(4-ethylpiperazin-1-yl)phenylamino)-5-methylpyrimidin-4-ylamino)-2,2-dimethyl-2H-pyrido[3,2-b][1,4]oxazin-3(4H)-one]
–	–	–	≥ 10	CCN1CCN(c2ccc(Nc3ncc(C)c(Nc4ccc5c(n4)N(C)C(=O)C(C)(C)O5)n3)cc2)CC1 [compound 94, 6-(2-(4-(4-ethylpiperazin-1-yl)phenylamino)-5-methylpyrimidin-4-ylamino)-2,2,4-trimethyl-2H-pyrido[3,2-b][1,4]oxazin-3(4H)-one]
–	–	–	≥ 10	Cc1cc(Nc2ncc(C)c(Nc3ccc4c(n3)N(C)C(=O)C(C)(C)O4)n2)ccc1N1CCN(C)CC1 [compound 98, 2,2,4-trimethyl-6-(5-methyl-2-(3-methyl-4-(4-methylpiperazin-1-yl)phenylamino)pyrimidin-4-ylamino)-2H-pyrido[3,2-b][1,4]oxazin-3(4H)-one]
–	–	–	≥ 10	CCOC(=O)N1CCN(c2ccc(Nc3ncc(F)c(Nc4ccc5c(n4)NCCO5)n3)cc2)CC1 [compound 163, ethyl 4-(4-(4-(3,4-dihydro-2H-pyrido[3,2-b][1,4]oxazin-6-ylamino)-5-fluoropyrimidin-2-ylamino)phenyl)piperazine-1-carboxylate]
–	–	–	≥ 10	CC(=O)N1CCN(c2cccc(Nc3ncc(F)c(Nc4ccc5c(n4)NCCO5)n3)c2)CC1 [compound 164, 1-(4-(3-(4-(3,4-dihydro-2H-pyrido[3,2-b][1,4]oxazin-6-ylamino)-5-fluoropyrimidin-2-ylamino)phenyl)piperazin-1-yl)ethanone]
–	–	–	≥ 10	CCOC(=O)N1CCN(c2cccc(Nc3ncc(F)c(Nc4ccc5c(n4)NCCO5)n3)c2)CC1 [compound 165, ethyl 4-(3-(4-(3,4-dihydro-2H-pyrido[3,2-b][1,4]oxazin-6-ylamino)-5-fluoropyrimidin-2-ylamino)phenyl)piperazine-1-carboxylate]
–	–	–	≥ 10	CN1CCN(c2ccc(Nc3ncc(F)c(Nc4ccc5c(n4)NCCO5)n3)cc2)CC1 [compound 166, N4-(3,4-dihydro-2H-pyrido[3,2-b][1,4]oxazin-6-yl)-5-fluoro-N2-(4-(4-methylpiperazin-1-yl)phenyl)pyrimidine-2,4-diamine]
–	–	–	≥ 10	Cc1cnc(Nc2ccc(N3CCN(C)CC3)nc2)nc1Nc1ccc2c(c1)N(C)C(=O)C(C)(C)O2 [compound 202, 2,2,4-trimethyl-6-(5-methyl-2-(6-(4-methylpiperazin-1-yl)pyridin-3-ylamino)pyrimidin-4-ylamino)-2H-benzo[b][1,4]oxazin-3(4H)-one]
